Test results published in patent US20120202849A1, “PHARMACEUTICAL COMPOSITIONS FOR THE TREATMENT/PROPHYLAXIS OF NON-ALCOHOLIC FATTY LIVER DISEASE” (priority 2009, published 2012).

Columns and labels:
[1] = test system: fructose induced fatty liver; experiment: Fructose induced fatty liver (NAFLD) in rats: biochemical parameters, body and liver weight, liver index after 14 days oral treatment; type: in vivo, Wistar rats; conditions: monotherapy or high dose combination: HCQ 160 mg/kg, ATV 8 mg/kg, MET 500 mg/kg, Mean ± S.D.; for Alk. PO4: alkaline phosphatase; for Glucose: blood; for Liver Index: calculated from body weight and liver weight; for TC (Total Cholesterol) / TG (Triglyceride): serum
Excerpt: The study was based on the experiment on rats with fatty liver induced by fructose feeding and given oral doses of different strengths of the corresponding drug samples for 14 days. It was concluded from the study that the protection given by the combination therapy is more as compared to monotherapy. […] In this experiment 66 Wistar rats weighing 150-200 g of either sex were divided randomly into 11 groups consisting of six rats each. […] Group 7 was NAFLD induced and treated with high dose combination of HCQ (160 mg/kg) and MET (500 mg/kg). Group 8 was NAFLD induced and treated with low dose combination of HCQ (80 mg/kg) and ATV (4 mg/kg). Group 9 was NAFLD induced and treated with high dose combination of HCQ (160 mg/kg) and ATV (8 mg/kg). Group 10 was NAFLD induced and treated with low dose combination of ATV (4 mg/kg), HCQ (80 mg/kg) and MET (250 mg/kg) whereas Group 11 was NAFLD induced and treated with high dose combination of ATV (8 mg/kg), HCQ (160 mg/kg) and MET (500 mg/kg). […] At the end of the therapy histopathological evaluations were performed.

[2] = test system: fructose induced fatty liver; experiment: Histopathological examination of NAFLD induced liver tissue; type: in vivo, Wistar rats; conditions: after 14 days; monotherapy or high dose combination: HCQ 160 mg/kg p.o., ATV 8 mg/kg p.o., MET 500 mg/kg
Description: In this experiment 66 Wistar rats weighing 150-200 g of either sex were divided randomly into 11 groups consisting of six rats each. Group 1 (normal control) consisted of normal rats that neither received fructose nor any drug, Group 2 served as NAFLD induced control (NAFLD was induced in rats by replacing water with 10% fructose solution for two weeks) which received vehicle orally, Group 3 was NAFLD induced and treated with HCQ (160 mg/kg), Group 4 was NAFLD induced and treated with ATV (8 mg/kg), Group 5 was NAFLD induced and treated with MET (500 mg/kg), Group 6 was NAFLD induced and treated with low dose combination of HCQ (80 mg/kg) and MET (250 mg/kg). Group 7 was NAFLD induced and treated with high dose combination of HCQ (160 mg/kg) and MET (500 mg/kg). Group 8 was NAFLD induced and treated with low dose combination of HCQ (80 mg/kg) and ATV (4 mg/kg). Group 9 was NAFLD induced and treated with high dose combination of HCQ (160 mg/kg) and ATV (8 mg/kg). Group 10 was NAFLD induced and treated with low dose combination of ATV (4 mg/kg), HCQ (80 mg/kg) and MET (250 mg/kg) whereas Group 11 was NAFLD induced and treated with high dose combination of ATV (8 mg/kg), HCQ (160 mg/kg) and MET (500 mg/kg). The study drugs suspended in vehicle [0.1% w/v suspension of Tween 80 and carboxymethylcellulose (CMC) in water] were administered for 14 days. After 14 days treatment, all the animals were sacrificed under chloroform anesthesia and blood was collected for determination of blood glucose levels, triglyceride levels, SGPT, SGOT, alkaline phosphatase and total cholesterol using autoanalyser (Microlab 2000) Liver index was also calculated based upon the body weight and liver weight. At the end of the therapy histopathological evaluations were performed.

[3] = patients treated with hydroxychloroquine; cited from earlier work
[4] = patients on combined insulin and hydroxychloroquine therapy; average; cited from earlier work

Row | SMILES | Alk. PO4 [1] | Glucose [1] | Liver Index [1] | SGOT [1] | SGPT [1] | TC (Total Cholesterol) [1] | TG (Triglyceride) [1] | Histopathological examination of liver [2] | Liver Weight [1] | Decrease in serum levels of cholesterol [3] | Reduction of daily insulin dose [4]
1 | CC(C)c1c(C(=O)Nc2ccccc2)c(-c2ccccc2)c(-c2ccc(F)cc2)n1CC[C@@H](O)C[C@@H](O)CC(=O)O [ATV, Atorvastatin] | 54.66 ± 2.58 U/L | 159.33 ± 9.07 mg/dL | 3.20 ± 0.24 | 114.00 ± 3.50 U/L | 37.5 ± 2.42 U/L | 137.66 ± 5.20 mg/dL | 463.33 ± 12.12 mg/dL | the degree of hepatic injury including steatosis and fatty infiltration were attenuated | – | – | –
2 | CN(C)C(=N)N=C(N)N [MET, Metformin] | 61 ± 6.32 U/L | 125.16 ± 6.24 mg/dL | 4.50 ± 0.30 | 132.33 ± 8.98 U/L | 43.66 ± 7.33 U/L | 155.66 ± 10.85 mg/dL | 516.33 ± 56.25 mg/dL | Liver cells showed regeneration and repair in the form of nucleolation and absence of coarse fat vacuoles | 7.63 ± 0.30 g | – | –
3 | CCN(CCO)CCCC(C)Nc1ccnc2cc(Cl)ccc12 (stereo not shown) [HCQ, Hydroxychloroquine] | 63.16 ± 4.07 U/L | 157.16 ± 7.93 mg/dL | 4.53 ± 0.10 | 137.83 ± 10.59 U/L | 44.83 ± 2.78 U/L | 159.66 ± 10.23 mg/dL | 556.66 ± 12.21 mg/dL | did not show any recovery from fatty change | 7.64 ± 0.33 g | approximately 10% | 30%
